Assay results from patent US20190169218A1, “AMPHIPATHIC COMPOUND HAVING NOVEL PENTA-SACCHARIDE HYDROPHILIC GROUP AND USE THEREOF” (Industry-University Cooperation Foundation Hanyang …, priority 2016, published 2019).

Key:
[1] = tested on: leucine transporter (LeuT); experiment: LeuT stability, [3H]-Leu binding by scintillation proximity assay (SPA); assay type: biochemical, Aquifex aeolicus; details: room temperature
Procedure: The ability of PSAs, PSEs or TPSs (TPS-A/E/ELs) to stabilize leucine transporter (LeuT), a membrane protein, was measured. LeuT purified by DDM was mixed with a solution containing each amphipathic compound, and the mixture was incubated at room temperature for 12 days. The activity of LeuT proteins was measured by scintillation proximity assay (SPA) using a ligand ([^3H]-Leu), and the concentration of PSAs, PSEs, TPSs or DDM was (a) CMC+0.04 wt %, or (b) CMC+0.2 wt %.
Specifically, LeuT stability measurement was performed in the following manner. According to the results of Example 6, PSA-C10, PSA-C11, PSE-C9, PSE-C11, and PSE-C13 were selected as the amphipathic compounds of PSAs and PSEs except for PSA-C9, and wild type leucine transporter (LeuT) was purified from Aquifex aeolicus using TPS-As, TPS-Es and TPS-EL, according to the method described in G. Deckert et al. (Nature 1998, 392, 353-358.). E. coli C41 (DE3) was transformed with a pET16b plasmid containing a gene construct encoding C-terminal 8×His-tagged LeuT, and thus LeuT was expressed in the form of a fusion protein having 8×His tags at the C-terminus in the transformed E. coli C41 (the expression plasmid was provided by Dr. E. Gouaux, Vollum Institute, Portland, Oreg., USA). Briefly, bacterial membranes containing LeuT were treated with 1.0 wt % DDM, and proteins were bound to Ni^2+-NTA resin (Life Technologies, Denmark). LeuT bound to the resin was eluted using a buffer solution containing 20 mM Tris-HCl (pH 8.0), 1 mM NaCl, 199 mM KCl, 0.05% DDM and 300 mM imidazole. Next, about 1.5 mg/mL of protein stock was diluted 10-fold in an equivalent buffer supplemented with TPS-As, TPS-Es, TPS-ELs, PSAs/PSEs (PSA-C10, PSA-C11, PSE-C9, PSE-C11 and PSE-C13) or DDM (control group) to a final concentration of CMC+0.04 wt % or CMC+0.2 wt % without DDM and imidazole. The protein samples were stored at room temperature and centrifuged at designated times. Protein activity was determined by measuring the degree of binding to [^3H]-Leu using scintillation proximity assay (SPA) (M. Quick et al., Proc. Natl, Acad. Sci. U.S.A. 2007, 104, 3603-3608.). Briefly, SPA was performed with 5 μL of each protein sample dissolved in a buffer containing 450 mM NaCl and each test compound. The SPA reaction was performed in the presence of 20 nM [^3H]-Leu and copper chelate (His-Tag) YSi beads (both were purchased from PerkinElmer, Denmark). The degree of binding to [^3H]-Leu was measured using a MicroBeta liquid scintillation counter (PerkinElmer).

[2] = target: T1, human β2 adrenergic receptor (β2AR) (Homo sapiens, UniProt P07550); experiment: β2AR activity by [3H]-dihydroalprenolol radioactive ligand binding assay; assay type: biochemical; details: for long-term β2AR activity ([3H]-DHA binding): 3 or 5 days at room temperature
T1 construct: Flag; made in house
T1 sequence (P07550 whole entry): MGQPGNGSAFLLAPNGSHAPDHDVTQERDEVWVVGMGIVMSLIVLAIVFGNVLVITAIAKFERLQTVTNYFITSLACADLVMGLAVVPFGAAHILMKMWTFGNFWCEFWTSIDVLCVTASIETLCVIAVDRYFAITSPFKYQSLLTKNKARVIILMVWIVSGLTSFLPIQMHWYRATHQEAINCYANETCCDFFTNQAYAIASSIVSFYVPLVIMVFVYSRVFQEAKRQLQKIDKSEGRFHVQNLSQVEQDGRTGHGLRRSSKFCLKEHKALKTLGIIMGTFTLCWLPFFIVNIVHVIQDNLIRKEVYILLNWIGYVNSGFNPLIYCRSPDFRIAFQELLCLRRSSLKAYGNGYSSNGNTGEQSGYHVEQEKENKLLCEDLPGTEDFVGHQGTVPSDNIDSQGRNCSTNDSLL
Procedure: The membrane protein stabilizing ability of receptors (mBBr-β2ARs) solubilized in PSAs or PSEs was evaluated by measuring the binding activity of the receptors to [^3H]-dihydroalprenolol ([^3H]-DHA).
Specifically, radioactive ligand binding assay was performed as follows. β2ARs purified with 0.1 wt % DDM was concentrated to about 10 mg/mL (approximately 200 μM). β2ARs purified with DDM were used to prepare a master binding mixture containing 10 nM [^3H]-dihydroalprenolol (DHA), which was dissolved in 0.2 wt % of DDM, PSA or PSE and supplemented with 0.5 mg/mL BSA. At a concentration of 0.2 pmol, the activity of the receptors purified with the amphipathic compounds was monitored at regular intervals over a 4-day incubation period. Protein samples were incubated on ice for 2 days and then at room temperature for 2 days. Receptor activity was measured by binding assay for dissolved radioactive ligands. The receptors purified with DDM or a novel formulation (PSA-C11, PSE-C11 or PSE-C13) were incubated with 10 nM [^3H]-DHA at room temperature for 30 minutes. The mixture was loaded onto a G-50 column, a solution passed through the column was collected in 1 mL of a binding buffer (100 mM NaCl and 20 mM HEPES (pH 7.5) supplemented with 0.5 mg/mL BSA and 20×CMC amphipathic compounds), and 15 mL of a scintillation fluid was added to the solution. Receptor-bound [^3H]-DHA was measured using a scintillation counter (Beckman). Non-specific binding of [^3H]-DHA was measured by adding 1 μM alprenolol (Sigma) to the same reaction mixture. The binding degree of the receptors to [^3H]-DHA was represented by a column graph.
The ability of TPSs (TPS-As, TPS-Es and TPS-ELs) to stabilize the structures of human β2 adrenergic receptors (β2ARs) and G protein-coupled receptors (GPCRs) was measured. That is, DDM-purified receptors were diluted with a buffer solution containing only each of the TPSs without cholesteryl hemisuccinate (CHS) or a buffer solution containing CHS and DDM. The final concentration of the compounds was CMC+0.2wt %, and the binding activity of the receptors to ligands was evaluated by measuring the degree of binding of the receptors to [^3H]-dihydroalprenolol ([^3H]-DHA).
Specifically, radioactive ligand binding assay was performed as follows. β2ARs were purified with 0.1 wt % DDM (D. M. Rosenbaum et al., Science, 2007, 318, 1266-1273.) and was concentrated to about 10 mg/mL (approximately 200 μM). β2ARs purified with DDM were used to prepare a master binding mixture containing 10 nM [^3H]-dihydroalprenolol (DHA), which was dissolved in 0.2% amphipathic compounds (DDM or TPSs) and supplemented with 0.5 mg/mL BSA. The activity of the receptors purified with the amphipathic compounds was monitored at regular intervals over a 3- to 5-day incubation period. The receptors purified with DDM or TPSs were incubated with 10 nM [^3H]-DHA at room temperature for 30 minutes. The mixture was loaded onto a G-50 column, a solution passed through the column was collected in 1 mL of a binding buffer (100 mM NaCl and 20 mM HEPES (pH 7.5) supplemented with 0.5 mg/mL BSA and 20×CMC of each amphipathic compound), and 15 mL of a scintillation fluid was added to the solution. Receptor-bound [^3H]-DHA was measured using a scintillation counter (Beckman). The binding degree of the receptors to [^3H]-DHA was represented by a column graph.

[3] = first two days of incubation at 0° C.

| Compound | maintenance of LeuT activity during 12 days of incubation ([1]; CMC+0.04 wt %) | maintenance of LeuT activity during 12 days of incubation ([1]; CMC+0.2 wt %) | LeuT transporter activity retained after 12 days of incubation ([1]; CMC+0.2 wt %, 12 days) [%] | initial β2AR activity ([3H]-DHA binding) ([2]; 0.2 wt % DDM, PSA or PSE) | β2AR activity ([3H]-DHA binding) during incubation [2, 3] | β2AR activity ([3H]-DHA binding) during incubation ([2]; incubation at room temperature (days 3-4)) | long-term β2AR activity ([3H]-DHA binding) [2] | initial β2AR activity ([3H]-DHA binding) ([2]; TPSs at CMC+0.2wt %, without CHS) |
| --- | --- | --- | --- | --- | --- | --- | --- | --- |
| CCCCCCCCCCCOCC(COCCCCCCCCCCC)O[C@@H]1OC(CO[C@@H]2OC(CO)[C@@H](O)C(O)C2O)[C@@H](O[C@@H]2OC(CO)[C@@H](O)C(O)C2O)C(O[C@@H]2OC(CO)[C@@H](O)C(O)C2O)C1O[C@@H]1OC(CO)[C@@H](O)C(O)C1O (stereo partly shown) [PSE-C11] | did not show any appreciable decrease in protein activity | completely preserved | 100 | higher initial activity than proteins solubilized in DDM | well maintained the initial activity thereof | the best |  |  |
| CCCCCCCCCCCC(CCCCCCCCCCC)CO[C@@H]1OC(CO[C@@H]2OC(CO)[C@@H](O)C(O)C2O)[C@@H](O[C@@H]2OC(CO)[C@@H](O)C(O)C2O)C(O[C@@H]2OC(CO)[C@@H](O)C(O)C2O)C1O[C@@H]1OC(CO)[C@@H](O)C(O)C1O (stereo partly shown) [PSA-C11] |  |  |  |  | well maintained the initial activity thereof |  |  |  |
| CCCCCCCCCCCCCOCC(COCCCCCCCCCCCCC)O[C@@H]1OC(CO[C@@H]2OC(CO)[C@@H](O)C(O)C2O)[C@@H](O[C@@H]2OC(CO)[C@@H](O)C(O)C2O)C(O[C@@H]2OC(CO)[C@@H](O)C(O)C2O)C1O[C@@H]1OC(CO)[C@@H](O)C(O)C1O (stereo partly shown) [PSE-C13] | did not show any appreciable decrease in protein activity |  |  | higher initial activity than proteins solubilized in DDM | well maintained the initial activity thereof |  |  |  |
| CCCCCCCCCCCCO[C@@H]1O[C@H](CO)[C@@H](O[C@H]2O[C@H](CO)[C@@H](O)[C@H](O)[C@H]2O)[C@H](O)[C@H]1O [DDM, n-dodecyl-β-D-maltopyranoside, reference compound] |  |  |  |  | well maintained the initial activity thereof |  | the activity was rapidly lost over time |  |
| CCCCCCCCOCC(COCCCCCCCC)(COCCCCCCCC)CO[C@@H]1OC(CO[C@@H]2OC(CO)[C@@H](O)C(O)C2O)[C@@H](O[C@@H]2OC(CO)[C@@H](O)C(O)C2O)C(O[C@@H]2OC(CO)[C@@H](O)C(O)C2O)C1O[C@@H]1OC(CO)[C@@H](O)C(O)C1O (stereo partly shown) [TPS-E8] | remained intact | completely preserved |  |  |  |  | significantly better than that of DDM | the most excellent |
